From ChEMBL document CHEMBL1201862, “PubChem BioAssay data set” (2004)
The source made the active and inactive calls. Cut-off read from the data, not from the text of the source: actives have a measured IC50 and inactives only a lower limit.

Molecular target: Envelope glycoprotein gp160 (Human immunodeficiency virus 1, UniProt Q6QLK5)
Experiment: inhibitors of HIV fusion peptide binding, primary screen, biochemical, uHTS, fluorescence dequenching (AID 1986)

Envelope glycoprotein gp160, sequence (Q6QLK5 whole entry, the tested form may be a part): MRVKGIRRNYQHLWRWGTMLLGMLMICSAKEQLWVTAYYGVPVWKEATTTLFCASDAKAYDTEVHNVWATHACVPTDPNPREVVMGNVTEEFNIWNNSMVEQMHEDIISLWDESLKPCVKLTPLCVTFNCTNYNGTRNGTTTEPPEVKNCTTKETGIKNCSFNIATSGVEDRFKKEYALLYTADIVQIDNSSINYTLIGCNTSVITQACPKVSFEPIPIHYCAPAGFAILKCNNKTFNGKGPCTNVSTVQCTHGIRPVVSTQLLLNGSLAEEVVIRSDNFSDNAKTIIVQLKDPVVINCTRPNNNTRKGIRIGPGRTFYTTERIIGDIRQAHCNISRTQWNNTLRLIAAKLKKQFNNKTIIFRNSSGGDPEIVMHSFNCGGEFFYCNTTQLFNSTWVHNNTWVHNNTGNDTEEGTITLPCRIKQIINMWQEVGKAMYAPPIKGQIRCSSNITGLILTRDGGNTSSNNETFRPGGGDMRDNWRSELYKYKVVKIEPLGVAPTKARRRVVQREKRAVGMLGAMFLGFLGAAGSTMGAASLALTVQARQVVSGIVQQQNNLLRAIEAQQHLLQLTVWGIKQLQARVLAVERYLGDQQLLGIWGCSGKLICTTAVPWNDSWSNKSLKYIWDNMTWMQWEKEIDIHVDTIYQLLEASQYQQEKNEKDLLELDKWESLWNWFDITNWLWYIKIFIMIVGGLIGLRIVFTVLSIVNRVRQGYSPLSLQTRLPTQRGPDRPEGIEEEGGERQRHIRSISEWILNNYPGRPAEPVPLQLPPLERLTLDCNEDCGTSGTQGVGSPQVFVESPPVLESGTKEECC

## COc1ccc(C(=O)/C=C/c2ccc(-c3ccccc3)cc2)cc1CSCC(=O)O
  IC50: 21.5 µM (active)
